Experimental data from patent US20110028391A1, “Use of GLP-1 Peptides” (Novo Nordisk A/S, priority 1996, published 2011).
Like-named read-outs stand apart in the source and are kept apart here. No end group written: not given here.

How the values were obtained:
rats = details: cited from earlier work
Healthy human volunteers = experiment: Double-blind crossover trial of iv infusion: food intake, satiety, hunger, fullness and appetite in normal human subjects; assay type: in vivo; details: iv infusion 50 pmol/(kg·h)
Description: Healthy human volunteers (20 subjects) were in a double-blind crossover trial given an iv infusion of 50 pmol/(kg·h) of GLP-1(7-36)amide or saline on separate, but otherwise identical experimental days. The infusion was started at 9.00 and lasted until 15.00. At 9.45 the subjects received a fixed amount of breakfast and at 14.15 they had lunch of an identical composition but ad libitum. The subjects rated their feeling of satiety, hunger, fullness and appetite on a visual analogue scale every half hour.

Mice [1] = experiment: Appetite suppression in mice: 20% sucrose consumption, tested immediately after ip injection (Example 2); assay type: in vivo; details: 85 micrograms (equivalent to 3.4 mg/kg) in sterile saline, 10 minute test immediately after injection, versus vehicle control, p-value 0.002
Experimental: Mice were deprived of their normal food for two days and given free access to a 20% sucrose solution on the first day of food deprivation. After the two day food deprivation period, the mice were injected intraperitoneally with 0.5 ml of a solution containing the test substance. Immediately after injection, individual mice were placed in one of eight 15 cm square test boxes with a stainless steel grid floor and a glass drinking tube which projected into the box. […] Consumption of the sucrose solution was measured over a 10 minute period by electronically recording the total amount of contact with the sucrose solution during the test session. The degree of appetite suppression produced by a given test substance was determined by statistical comparison of the mean duration of sucrose consumption by control (vehicle treated) mice with that of mice treated with a test substance. The degree of appetite suppression in a treated group of mice was expressed as percent difference between the test and control group's response duration means. […]

Mice [2] = experiment: Appetite suppression in mice: Complan formula milk consumption after subcutaneous injection (Example 4); assay type: in vivo; details: 30 min after injection, p<0.001
[3] = 9.00 to 15.00, 20 subjects, rated every half hour, p=0.007

Substance: GLP-1(1-36)amide (HDEFERHAEGTFTSDVSSYLEGQAAKEFIAWLVKGR-NH2; UniProt P01275 92-127, looked up, fragment) [GLP-1 fragment 1-36, C-terminal amide]
- Effect on food intake (rats; Tang-Christensen et al. 1996, route not stated): no effect

Substance: GLP-1: proglucagon fragment 72-108 per b6; as named in the cited rat studies (b7); in b63 it is shorthand for GLP-1(7-36)amide
- Satiety (visual analogue scale) versus saline (Healthy human volunteers; 9.00 to 15.00, 20 subjects, rated every half hour, p=0.006): GLP-1>Saline
- Appetite (visual analogue scale) versus saline (Healthy human volunteers; [3]): GLP-1<Saline
- Hunger (visual analogue scale) versus saline (Healthy human volunteers; [3]): GLP-1<Saline
- Fullness (visual analogue scale) versus saline (Healthy human volunteers; 9.00 to 15.00, 20 subjects, rated every half hour, p=0.010): GLP-1>Saline
- Energy intake (Healthy human volunteers; ad libitum lunch, saline 4.3 MJ, p-value 0.009): 3.9 mJ
- Effect on food intake (rats; administered intracerebroventricularly, Tang-Christensen et al. 1996): profound effect
- Effect on food intake (rats; administered intracerebroventricularly, Turton et al. 1996): profound effect
- Effect on food intake (rats; peripheral administration, Turton et al. 1996): inactive
- Effect on food intake (rats; peripherally administered, Tang-Christensen et al. 1996): no significant effect

Substance: GLP-1(7-36)amide
- Suppression of sucrose consumption (Mice [1]): 60%
- Suppression of feeding (Complan consumption) (Mice [2]; 1 mg/kg): 45%
- Maximum effect, suppression of feeding (Complan consumption) (Mice [2]; 20 mg/kg (highest dose tested)): 60%
